# In US6338963B1, “Use of carbon monoxide dependent guanylyl cyclase modifiers to stimulate neuritogenesis” (NeoTherapeutics, Inc., priority 1994, dated 2002):
# Marks after values point to notes of the source that are not given here.
# How the values were obtained:
# Swiss Webster mice = assay: Win-shift test, Swiss Webster mice with age-induced memory deficits; format: in vivo; conditions: AIT-082 30 mg/kg
# Experimental: Twelve-month old male Swiss Webster mice were screened for performance in the win-shift foraging test. Subjects were tested at various time delays, beginning at 10 seconds and increasing the inter-trial time interval to 30, 60, 90 and 120 seconds.
# Subjects with severe impairment could not remember the correct response at 10 seconds while subjects with mild deficit could remember the correct response with a 30 second inter-trial interval but not at 60 seconds. Subjects with a moderate deficit could remember the correct response with a 10 second inter-trial interval but not […] at 30 seconds. Thus, the win-shift model can detect age-induced impairments in working memory. As will be appreciated by those skilled in the art, this observation is important since it provides the ability to use age-matched subjects with varying degrees of impairment for evaluation of potential therapeutic agents.
# Following the establishment of a baseline, six subjects in each of the three groups were treated with AIT-82 (30 mg/kg, one hour before testing) or physostigmine (0.125 mg/kg, 30 minutes before testing) using the win-shift foraging test. The results are presented in Table L directly below and graphically represented in FIG. 9.
# [1] = tested on: cultured rat hippocampal neurons; assay: NMDA-induced toxicity in cultured rat hippocampal neurons, astrocyte conditioned medium
# Experimental: To determine whether or not AIT-082 afforded in vitro neuroprotection, the effect of AIT-082 on toxicity induced by N-methyl-D-aspartate (NMDA) in cultured rat hippocampal neurons was studied.
# To determine whether AIT-082 protected against neuronal toxicity induced by NMDA, and whether astrocytes might be involved, cultured astrocytes were exposed to AIT-082 for 6 hr. The drug was then removed and cultures were kept in fresh medium for the following 20 hr. This conditioned medium was then added to primary cultures of rat hippocampal neurons on the seventh day in vitro, immediately after they had been exposed to a toxic pulse of NMDA.
# It was next evaluated whether the addition of conditioned medium (CM) deriving from astrocyte cultures treated with 100 μM AIT-082 generated protection against damage induced by a toxic pulse with 100 μM NMDA in cultured neurons.
# The effects of NMDA are shown in FIG. 66A on cortical cells and in FIG. 66B for hippocampal cells.
# rat caudate nuclei = assay: GAD activity in rat caudate nuclei damaged by NMDA; format: in vivo
# Experimental: The effect of AIT-082 on in vivo neuroprotection was also assessed by assaying for glutamic acid decarboxylase (GAD) activity.
# GAD activity in rat caudate nuclei was damaged in vivo by NMDA. Increasing amounts of NMDA (25-300 nmoles) were unilaterally infused into caudate nuclei of rats. Eight to 10 days after the injections, glutarnic acid decarboxylase (GAD) activity was assayed, as an index of the loss of GABA-ergic neurons. NMDA produced a dose-dependent lesion, which at its maximal extension caused a reduction of GAD activity by 50% in comparison with that of contralateral sham-operated nuclei (control). […] The necrotic areas are in white, whereas the shadow is the surrounding edema GAD activity was evaluated by measuring the ex novo formation of [^3H]GABA from dissected striata exposed to 1 μCi of [^3H]glutamate for 1 hour at 37° C. GABA was assayed by HPLC with fluorescence detection and the [3H]label associated with GABA was measured.
# BDNF = assay: Two-site ELISA of growth factor protein in rat brain and spinal cord: BDNF; format: in vivo, F344 rats
# Experimental: Adult female F344 rats were given either AIT-082 (doses: 30 mg/kg/day or a higher dose of 30 mg/ml (˜3,000 mg/kg/day); n=6 rats per group) in their drinking water, or water alone, as a vehicle for control. The duration of the study was seven days, at which time the rats were anesthesized and perfused with ice-cold saline. The brains of the rats were rapidly removed. The brains were placed on a chilled glass plate and dissected into the following regions: basal forebrain, frontal cortex, parietal cortex, cerebellum, spinal cord, and hippocampal formation. Tissues were stored at −70° C. until assayed in a specific two-site ELISA for either NGF, BDNF, NT-3, or GNDF.
# The results are shown in FIGS. 45 (BDNF), 46 (NT-3), 47 (GDNF) and 48 (NGF). For the results shown in FIGS. 45-48, animals were given only water (VEH, n=6) or water with AIT-082 at either 30 mg/kg/day (n=6) or 30 mg/ml (n=6) for seven days. The levels of each growth factor were determined in the frontal cortex (F. Cor.), parietal cortex (P.Cor.), hippocampal formation (Hipp.), basal forebrain (B.F.), cerebellum (Cer.), or spinal cord (Cord) using a specific two-site ELISA for each growth factor.
# Adult female rats were given AIT-082 (30 mg/kg/day) in their drinking water or drinking water alone (n=6 for each group) for seven days prior to receiving a bilateral fimbria fornix transection (FFT).
# The results are shown in FIGS. 49 (BDNF), 50 (NT-3), 51 (GDNF) and 52 (NGF). For the results shown in the Figures, animals were given only water (VEH, n=3) or water with AIT-082 at 30 mg/kg/day (n=3). Levels of the growth factor were determined in frontal cortex (F.Cor.), parietal cortex (P.Cor.), hippocampal formation (Hipp.), basal forebrain (B.F.), cerebellum (Cer.), or spinal cord (Cord) using a specific two-site ELISA for each growth factor.
# Aged female Fischer 344 rats (obtained from National Institute on Aging; 24 months on arrival) were given AIT-082 (30 mg/kg/day) in their drinking water or drinking water alone, for a period of 30 days (n=5 rats per group). After 30 days, animals were sacrificed and fresh tissues were dissected as described above. An additional set of young animals (n=5) was processed along with the aged rats for comparison.
# Results are shown in FIGS. 53 (BDNF), 54 (NT3), 55 (GDNF), and 56 (NGF). As described above, for the results shown in these figures, aged rats (24 months of age) were given water (vehicle control; n=5) or water with AIT-082 (at 30 mg/kg/day; n=5 for 30 days). A separate group of young untreated animals was also included (n=5). Levels of each growth factor were determined in frontal cortex (F.Cor.), parietal cortex (P. Cor.), hippocampal formation (Hipp.), basal forebrain (B.F.), cerebellum (Cer.) or spinal cord (Cord) using a specific two-site ELISA.
compound,measurement,setting,value
"O=C(CCn1cnc2c(=O)[nH]cnc21)Nc1ccc(C(=O)O)cc1 [AIT-082, N-4-carboxyphenyl-3-(6-oxohydropurin-9-yl)propanamide]",subjects performing significantly above chance/total number of subjects,"Swiss Webster mice; Mild deficit, interval 60 sec",6/6*
same,subjects performing significantly above chance/total number of subjects,"Swiss Webster mice; Mild deficit, interval 90 sec",4/6
same,subjects performing significantly above chance/total number of subjects,"Swiss Webster mice; Mild deficit, interval 120 sec",2/6
same,subjects performing significantly above chance/total number of subjects,"Swiss Webster mice; Mild deficit, interval 150 sec",1/6
same,subjects performing significantly above chance/total number of subjects,"Swiss Webster mice; Mild deficit, interval 180 sec",1/6
same,subjects performing significantly above chance/total number of subjects,"Swiss Webster mice; Mild deficit, interval 210 sec",0/6
same,subjects performing significantly above chance/total number of subjects,"Swiss Webster mice; Moderate deficit, interval 30 sec",4/6*
same,subjects performing significantly above chance/total number of subjects,"Swiss Webster mice; Moderate deficit, interval 60 sec",2/6
same,subjects performing significantly above chance/total number of subjects,"Swiss Webster mice; Moderate deficit, interval 90 sec",0/6
same,subjects performing significantly above chance/total number of subjects,"Swiss Webster mice; Severe deficit, interval <10 sec",0/6
same,reduction of cell damage,"[1]; combination of 100 μM AIT-082 and CM, hippocampal cells, 100 μM NMDA",70-80%
same,reduction of the number of dead neurons and the production of LDH caused by NMDA,[1]; conditioned medium from astrocytes treated with AIT-082 (50-100 μM) for 6 hr,50%
same,GAD activity in damaged striata,"rat caudate nuclei; daily intraperitoneal injection for seven days, 200 mnoles NMDA",nearly completely preserved GAD activity
same,loss of GAD activity,"rat caudate nuclei; local, 300 mnoles AIT-082 coinfused with 200 nmoles NMDA",almost completely prevented the loss of GAD activity
same,BDNF protein levels over vehicle controls,"BDNF; FFT-lesioned rats, 30 mg/kg/day, frontal cortex, significance not achieved",almost threefold
same,BDNF protein levels,"BDNF; aged rats, 30 mg/kg/day 30 days, any brain region",no effect
same,BDNF protein levels over vehicle controls,"BDNF; intact adult rats, 30 mg/kg/day in drinking water 7 days, frontal cortex",more than twofold
same,BDNF protein levels over vehicle controls,"BDNF; intact adult rats, 3000 mg/kg/day, frontal cortex",not seen
same,BDNF protein levels over vehicle controls,"BDNF; intact adult rats, spinal cord, not significant (p>0.05)",twofold
